Results taken from patent US9000186B2, “Ring-fused heterocyclic derivative” (Kyowa Hakko Kirin Co., Ltd., priority 2011, dated 2015).

Each compound was assayed against T1, human Cav3.2 T-type Ca2+ channel (Homo sapiens, UniProt O95180) (assay: Inhibitory effect for intracellular calcium response via Cav3.2 T-type Ca2+ channels (FLIPR Calcium 3 Assay Kit)). Conditions: not given.
T1 construct: expressed in transfected cells; host or cells: KJMGER8 cells (Namalwa cell-derived cell line)
Format: cell-based

T1 sequence (O95180 whole entry): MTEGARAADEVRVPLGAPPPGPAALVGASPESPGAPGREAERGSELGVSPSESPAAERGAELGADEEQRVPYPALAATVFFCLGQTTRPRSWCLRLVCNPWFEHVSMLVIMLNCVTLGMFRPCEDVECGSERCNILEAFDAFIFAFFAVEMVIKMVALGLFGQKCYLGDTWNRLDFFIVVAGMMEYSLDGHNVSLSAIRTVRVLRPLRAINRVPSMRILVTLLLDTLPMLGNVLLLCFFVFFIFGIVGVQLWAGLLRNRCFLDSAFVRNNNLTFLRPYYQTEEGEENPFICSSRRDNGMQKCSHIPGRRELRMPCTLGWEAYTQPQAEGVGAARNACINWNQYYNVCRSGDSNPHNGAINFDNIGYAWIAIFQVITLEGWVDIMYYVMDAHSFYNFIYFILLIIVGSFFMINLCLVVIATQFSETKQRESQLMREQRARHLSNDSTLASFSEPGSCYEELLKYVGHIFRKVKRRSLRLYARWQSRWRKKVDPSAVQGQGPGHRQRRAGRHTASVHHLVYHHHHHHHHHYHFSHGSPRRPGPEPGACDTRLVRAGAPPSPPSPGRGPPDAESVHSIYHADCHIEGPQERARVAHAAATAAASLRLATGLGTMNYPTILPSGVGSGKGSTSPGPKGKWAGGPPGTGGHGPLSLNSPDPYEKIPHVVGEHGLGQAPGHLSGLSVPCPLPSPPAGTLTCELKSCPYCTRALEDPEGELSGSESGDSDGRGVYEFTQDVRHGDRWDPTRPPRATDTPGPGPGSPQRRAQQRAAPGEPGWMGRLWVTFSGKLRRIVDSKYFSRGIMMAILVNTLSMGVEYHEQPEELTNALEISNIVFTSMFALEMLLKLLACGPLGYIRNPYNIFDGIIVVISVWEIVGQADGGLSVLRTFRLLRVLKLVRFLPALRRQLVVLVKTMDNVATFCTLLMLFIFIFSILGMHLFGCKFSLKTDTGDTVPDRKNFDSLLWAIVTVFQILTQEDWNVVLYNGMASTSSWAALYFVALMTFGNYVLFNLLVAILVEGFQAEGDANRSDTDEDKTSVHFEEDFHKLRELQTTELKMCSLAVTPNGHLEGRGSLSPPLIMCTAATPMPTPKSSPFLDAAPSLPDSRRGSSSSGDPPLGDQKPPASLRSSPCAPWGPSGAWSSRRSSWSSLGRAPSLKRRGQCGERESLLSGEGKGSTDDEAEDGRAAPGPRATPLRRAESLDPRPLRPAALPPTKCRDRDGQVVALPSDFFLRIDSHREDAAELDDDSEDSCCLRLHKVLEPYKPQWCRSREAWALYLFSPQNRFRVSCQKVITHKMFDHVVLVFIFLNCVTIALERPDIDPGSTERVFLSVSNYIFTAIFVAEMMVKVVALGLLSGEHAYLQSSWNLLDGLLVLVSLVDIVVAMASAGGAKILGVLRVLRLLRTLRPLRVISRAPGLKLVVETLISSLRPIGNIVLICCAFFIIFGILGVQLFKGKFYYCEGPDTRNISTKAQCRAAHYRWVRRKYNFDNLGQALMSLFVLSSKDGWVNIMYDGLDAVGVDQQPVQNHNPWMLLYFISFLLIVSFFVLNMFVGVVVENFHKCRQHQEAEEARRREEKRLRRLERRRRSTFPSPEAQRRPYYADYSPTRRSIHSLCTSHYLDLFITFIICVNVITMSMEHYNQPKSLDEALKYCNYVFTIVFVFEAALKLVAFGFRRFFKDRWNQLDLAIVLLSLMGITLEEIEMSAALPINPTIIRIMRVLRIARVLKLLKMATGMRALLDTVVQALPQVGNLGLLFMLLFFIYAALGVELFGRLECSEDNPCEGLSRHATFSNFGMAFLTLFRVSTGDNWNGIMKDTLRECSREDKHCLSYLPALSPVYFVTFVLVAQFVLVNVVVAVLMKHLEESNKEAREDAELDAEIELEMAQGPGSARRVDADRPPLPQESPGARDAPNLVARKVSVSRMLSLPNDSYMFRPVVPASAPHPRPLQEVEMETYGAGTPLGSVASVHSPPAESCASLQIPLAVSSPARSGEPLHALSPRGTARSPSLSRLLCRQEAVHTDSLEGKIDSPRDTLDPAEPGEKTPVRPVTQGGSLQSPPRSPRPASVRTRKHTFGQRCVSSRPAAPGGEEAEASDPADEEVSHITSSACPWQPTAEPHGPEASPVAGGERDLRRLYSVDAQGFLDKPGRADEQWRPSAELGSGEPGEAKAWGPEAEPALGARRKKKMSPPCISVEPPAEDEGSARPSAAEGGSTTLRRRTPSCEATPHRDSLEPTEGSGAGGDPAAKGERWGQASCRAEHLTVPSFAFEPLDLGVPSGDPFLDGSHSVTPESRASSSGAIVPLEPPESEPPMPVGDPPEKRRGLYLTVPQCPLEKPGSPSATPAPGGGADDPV

**Q.** For `CCN(CC)C(=O)c1ccn2c(SC3CCCCC3)c(C(C)C)nc2c1` [Compound 12, 3-Cyclohexylthio-N,N-diethyl-2-isopropylimidazo[1,2-a]pyridine-7-carboxamide], which IC50 is on record?
**A.** The IC50 was under 100 nM.

**Q.** For `CC(C)(C)c1nc2cc(C(=O)NCc3ccccc3)ccn2c1CC1CCCCC1` [Compound 16, N-Benzyl-2-tert-butyl-3-cyclohexylmethylimidazo[1,2-a]pyridine-7-carboxamide], which IC50 is on record?
**A.** The IC50 was under 100 nM.

**Q.** `CC(C)(C)c1nc2cc(C(=O)NNC(=O)c3ccccc3)ccn2c1CC1CCCCC1` [Compound 17, N′-Benzoyl-2-tert-butyl-3-cyclohexylmethylimidazo[1,2-a]pyridine-7-carbohydrazide] was tested. Which IC50 did it give?
**A.** The IC50 was under 100 nM.

**Q.** `CC(C)CC(=O)N(C)c1ccn2c(CC3CCCCC3)c(C(C)(C)C)nc2c1` [Compound 19, N-(2-tert-Butyl-3-cyclohexylmethylimidazo[1,2-a]pyridin-7-yl)-N,3-dimethylbutanamide] was tested. Which IC50 did it give?
**A.** The IC50 was under 100 nM.

**Q.** How did the IC50 turn out when `CN(C)S(=O)(=O)N(C)c1ccn2c(CC3CCCCC3)c(C(C)(C)C)nc2c1` [Compound 20, N-(2-tert-Butyl-3-cyclohexylmethylimidazo[1,2-a]pyridin-7-yl)-N,N′,N′-trimethylsulfamide] was run?
**A.** The IC50 was under 100 nM.

**Q.** `CC(C)c1nc2cc(C(=O)Nc3nccs3)ccn2c1COC1CCCCC1` [Compound 25, 3-Cyclohexyloxymethyl-2-isopropyl-N-(thiazol-2-yl)imidazo[1,2-a]pyridine-7-carboxamide] was tested. Which IC50 did it give?
**A.** Its IC50 is under 100 nM.

**Q.** For `CC(C)c1nc2cc(C(=O)Nc3ccncc3)ccn2c1Cc1ccccc1` [Compound 37, 3-Benzyl-2-isopropyl-N-(pyridin-4-yl)imidazo[1,2-a]pyridine-7-carboxamide], which IC50 is on record?
**A.** The IC50 was under 100 nM.

**Q.** Which IC50 does the source give for `Cc1cn2c(S(=O)(=O)C3CCCCC3)c(C(C)C)nc2cc1C(=O)Nc1ccncc1` [Compound 39, 3-Cyclohexylsulfonyl-2-isopropyl-6-methyl-N-(pyridin-4-yl)imidazo[1,2-a]pyridine-7-carboxamide] here?
**A.** The IC50 was under 100 nM.

**Q.** Which IC50 does the source give for `CC(C)c1nc2cc(C(=O)Nc3ccccc3)ccn2c1SC1CCCCC1` [Compound 40, 3-Cyclohexylthio-2-isopropyl-N-phenylimidazo[1,2-a]pyridine-7-carboxamide] here?
**A.** Its IC50 is under 100 nM.

**Q.** With `Cc1c(C(=O)Nc2ccncc2)ccn2c(CC3CCCCC3)c(C(C)(C)C)nc12` [Compound 42, 2-tert-Butyl-3-cyclohexylmethyl-8-methyl-N-(pyridin-4-yl)imidazo[1,2-a]pyridine-7-carboxamide] as the compound, how does the IC50 read?
**A.** Its IC50 is under 100 nM.

**Q.** For `CC1(C)COCCC1NC(=O)c1ccn2c(CC3CCC(F)(F)CC3)c(C(F)(F)F)nc2c1` (stereo not shown) [Compound 53, 3-(4,4-Difluorocyclohexylmethyl)-N-(3,3-dimethyltetrahydro-2H-pyran-4-yl)-2-trifluoromethylimidazo[1,2-a]pyridine-7-carboxamide], which IC50 is on record?
**A.** The IC50 was under 100 nM.

**Q.** Which IC50 does the source give for `COCC1(CNC(=O)c2ccn3c(CC4CCC(F)(F)CC4)c(C(F)(F)F)nc3c2)CCOCC1` [Compound 59, 3-(4,4-Difluorocyclohexylmethyl)-N-[{4-(methoxymethyl)tetrahydro-2H-pyran-4-yl}methyl]-2-trifluoromethylimidazo[1,2-a]pyridine-7-carboxamide] here?
**A.** The IC50 was under 100 nM.

**Q.** With `O=C(NC1CCOCC1)c1ccn2c(CC3CCC(F)(F)CC3)c(C3(C(F)(F)F)CC3)nc2c1` [Compound 65, 3-(4,4-Difluorocyclohexylmethyl)-N-(tetrahydro-2H-pyran-4-yl)-2-(1-trifluoromethylcyclopropyl)imidazo[1,2-a]pyridine-7-carboxamide] as the compound, how does the IC50 read?
**A.** The IC50 was under 100 nM.

**Q.** Which IC50 does the source give for `Cc1cc(C(=O)Nc2ccccc2N)cc2nc(C(F)(F)F)c(CC3CCC(F)(F)CC3)n12` [Compound 68, N-(2-Aminophenyl)-3-(4,4-difluorocyclohexylmethyl)-5-methyl-2-trifluoromethylimidazo[1,2-a]pyridine-7-carboxamide] here?
**A.** The IC50 was under 100 nM.

**Q.** `Cc1cc(C(=O)NC2CCC(=O)CC2)cc2nc(C(F)(F)F)c(CC3CCC(F)(F)CC3)n12` [Compound 71, 3-(4,4-Difluorocyclohexylmethyl)-5-methyl-N-(4-oxocyclohexyl)-2-trifluoromethylimidazo[1,2-a]pyridine-7-carboxamide] was tested. Which IC50 did it give?
**A.** The IC50 was under 100 nM.

**Q.** With `Cc1cc(C(=O)NC2CCSCC2)cc2nc(C(F)(F)F)c(CC3CCC(F)(F)CC3)n12` [Compound 74, 3-(4,4-Difluorocyclohexylmethyl)-5-methyl-N-(tetrahydro-2H-thiopyran-4-yl)-2-trifluoromethylimidazo[1,2-a]pyridine-7-carboxamide] as the compound, how does the IC50 read?
**A.** Its IC50 is under 100 nM.

**Q.** For `Cc1cc(C(=O)NCC2(CO)CCOCC2)cc2nc(C(F)(F)F)c(CC3CCC(F)(F)CC3)n12` [Compound 85, 3-(4,4-Difluorocyclohexylmethyl)-N-[{4-(hydroxymethyl)tetrahydro-2H-pyran-4-yl}methyl]-5-methyl-2-trifluoromethylimidazo[1,2-a]pyridine-7-carboxamide], which IC50 is on record?
**A.** The IC50 was under 100 nM.

**Q.** `Cc1cc(C(=O)NCC2(F)CCOCC2)cc2nc(C(F)(F)F)c(CC3CCC(F)(F)CC3)n12` [Compound 87, 3-(4,4-Difluorocyclohexylmethyl)-N-{(4-fluorotetrahydro-2H-pyran-4-yl)methyl}-5-methyl-2-trifluoromethylimidazo[1,2-a]pyridine-7-carboxamide] was tested. Which IC50 did it give?
**A.** The IC50 was under 100 nM.

**Q.** `Cc1cc(C(=O)NOC2CCOCC2)cc2nc(C(F)(F)F)c(CC3CCC(F)(F)CC3)n12` [Compound 90, 3-(4,4-Difluorocyclohexylmethyl)-5-methyl-N-(tetrahydro-2H-pyran-4-yloxy)-2-trifluoromethylimidazo[1,2-a]pyridine-7-carboxamide] was tested. Which IC50 did it give?
**A.** Its IC50 is under 100 nM.

**Q.** Which IC50 does the source give for `Cc1cc(C(=O)N(C)C2CCOCC2)cc2nc(C(F)(F)F)c(CC3CCC(F)(F)CC3)n12` [Compound 91, 3-(4,4-Difluorocyclohexylmethyl)-N,5-dimethyl-N-(tetrahydro-2H-pyran-4-yl)-2-trifluoromethylimidazo[1,2-a]pyridine-7-carboxamide] here?
**A.** The IC50 was under 100 nM.

**Q.** How did the IC50 turn out when `Cc1cc(C(=O)NCC2(C)COC2)cc2nc(C(F)(F)F)c(CC3CCC(F)(F)CC3)n12` [Compound 95, 3-(4,4-Difluorocyclohexylmethyl)-5-methyl-N-{(3-methyloxetan-3-yl)methyl}-2-trifluoromethylimidazo[1,2-a]pyridine-7-carboxamide] was run?
**A.** The IC50 was under 100 nM.

**Q.** With `COC(C)(C)c1nc2cc(C(=O)NC3CCOCC3)cc(C)n2c1CC1CCC(F)(F)CC1` [Compound 97, 3-(4,4-Difluorocyclohexylmethyl)-2-(2-methoxypropan-2-yl)-5-methyl-N-(tetrahydro-2H-pyran-4-yl)imidazo[1,2-a]pyridine-7-carboxamide] as the compound, how does the IC50 read?
**A.** Its IC50 is under 100 nM.

**Q.** How did the IC50 turn out when `O=C(Nc1ccccc1)c1cc(Cl)n2c(CC3CCC(F)(F)CC3)c(C(F)(F)F)nc2c1` [Compound 102, 5-Chloro-3-(4,4-difluorocyclohexylmethyl)-N-phenyl-2-trifluoromethylimidazo[1,2-a]pyridine-7-carboxamide] was run?
**A.** The IC50 was under 100 nM.

**Q.** How did the IC50 turn out when `O=C(NCC1CCOC1)c1cc(Cl)n2c(CC3CCC(F)(F)CC3)c(C(F)(F)F)nc2c1` (stereo not shown) [Compound 106, 5-Chloro-3-(4,4-difluorocyclohexylmethyl)-N-{(tetrahydrofuran-3-yl)methyl}-2-trifluoromethylimidazo[1,2-a]pyridine-7-carboxamide] was run?
**A.** The IC50 was under 100 nM.

**Q.** How did the IC50 turn out when `CC(C)(c1nc2cc(C(=O)NC3CCOCC3)c(Cl)cn2c1CC1CCC(F)(F)CC1)C(F)(F)F` [Compound 115, 6-Chloro-3-(4,4-difluorocyclohexylmethyl)-N-(tetrahydro-2H-pyran-4-yl)-2-(1,1,1-trifluoro-2-methylpropan-2-yl)imidazo[1,2-a]pyridine-7-carboxamide] was run?
**A.** The IC50 was under 100 nM.

**Q.** For `O=C(Nc1ccccc1)c1cc2nc(C(F)(F)F)c(CC3CCC(F)(F)CC3)n2cc1Br` [Compound 117, 6-Bromo-3-(4,4-difluorocyclohexylmethyl)-N-phenyl-2-trifluoromethylimidazo[1,2-a]pyridine-7-carboxamide], which IC50 is on record?
**A.** The IC50 was under 100 nM.

Same assay, conditions: human Cav3.2-expressing KJMGER8 cells (Namalwa-derived); calcium response induced by 5 mmol/L CaCl2; normalised to 3 μmol/L mibefradil; read-out: IC50 for the human Cav3.2 T-type Ca2+ current

**Q.** With `CC(C)c1nc2cc(NC(=O)c3ccccc3)ccn2c1COC1CCCCC1` [Compound 28, N-(3-Cyclohexyloxymethyl-2-isopropylimidazo[1,2-a]pyridin-7-yl)benzamide] as the compound, how does the IC50 read?
**A.** The IC50 was under 100 nM.

**Q.** Which IC50 does the source give for `CC(C)c1nc2cc(-c3nc4ccccc4[nH]3)ccn2c1COC1CCCCC1` [Compound 33, 2-(3-Cyclohexyloxymethyl-2-isopropylimidazo[1,2-a]pyridin-7-yl)-1H-benzimidazole] here?
**A.** The IC50 was under 100 nM.

**Q.** Which IC50 does the source give for `CS(=O)(=O)c1cccc(NC(=O)c2ccn3c(CC4CCC(F)(F)CC4)c(C(F)(F)F)nc3c2)c1` [Compound 48, 3-(4,4-Difluorocyclohexylmethyl)-N-(3-methanesulfonylphenyl)-2-trifluoromethylimidazo[1,2-a]pyridine-7-carboxamide] here?
**A.** Its IC50 is under 100 nM.

**Q.** With `CCC1(CNC(=O)c2ccn3c(CC4CCC(F)(F)CC4)c(C(F)(F)F)nc3c2)COC1` [Compound 56, 3-(4,4-Difluorocyclohexylmethyl)-N-{(3-ethyloxetan-3-yl)methyl}-2-trifluoromethylimidazo[1,2-a]pyridine-7-carboxamide] as the compound, how does the IC50 read?
**A.** The IC50 was under 100 nM.

**Q.** For `CC1(CNC(=O)c2ccn3c(CC4CCC(F)(F)CC4)c(C(F)(F)F)nc3c2)CCCO1` (stereo not shown) [Compound 57, 3-(4,4-Difluorocyclohexylmethyl)-N-{(2-methyltetrahydrofuran-2-yl)methyl}-2-trifluoromethylimidazo[1,2-a]pyridine-7-carboxamide], which IC50 is on record?
**A.** Its IC50 is under 100 nM.

**Q.** `COC1(CNC(=O)c2cc(C)n3c(CC4CCC(F)(F)CC4)c(C(F)(F)F)nc3c2)CCOCC1` [Compound 86, 3-(4,4-Difluorocyclohexylmethyl)-N-{(4-methoxytetrahydro-2H-pyran-4-yl)methyl}-5-methyl-2-trifluoromethylimidazo[1,2-a]pyridine-7-carboxamide] was tested. Which IC50 did it give?
**A.** The IC50 was under 100 nM.

**Q.** `Cc1cc(C(=O)NCC2COCCOC2)cc2nc(C(F)(F)F)c(CC3CCC(F)(F)CC3)n12` [Compound 93, N-{(1,4-Dioxepan-6-yl)methyl}-3-(4,4-difluorocyclohexylmethyl)-5-methyl-2-trifluoromethylimidazo[1,2-a]pyridine-7-carboxamide] was tested. Which IC50 did it give?
**A.** The IC50 was under 100 nM.

**Q.** `O=C(Nc1ccccc1)c1cc2nc(C(F)(F)F)c(CC3CCC(F)(F)CC3)n2cc1Cl` [Compound 107, 6-Chloro-3-(4,4-difluorocyclohexylmethyl)-N-phenyl-2-trifluoromethylimidazo[1,2-a]pyridine-7-carboxamide] was tested. Which IC50 did it give?
**A.** The IC50 was under 100 nM.
